Key:
Format in all cases: functional
Design in all cases: scale not given: the % may be the effect or the level left
Conditions in all cases: route intraperitoneal
[1] = test system: Rattus norvegicus; assay: Inhibition of amphotericin B-induced renal tubular apoptosis in Sprague-Dawley rat assessed as apoptotic index at 30 mg/kg, ip BID measured post last dose
[2] = test system: Rattus norvegicus; assay: Inhibition of amphotericin B-induced renal tubular apoptosis in Sprague-Dawley rat assessed as apoptotic index at 60 mg/kg, ip BID measured post last dose
[3] = test system: Rattus norvegicus; assay: Inhibition of amphotericin B-induced renal tubular apoptosis in Sprague-Dawley rat assessed as apoptotic index at 120 mg/kg, ip BID measured post last dose

Question: Which results are given for `CC(=O)N[C@@H](CS)C(=O)O` [ACETYLCYSTEINE]?
Answer: Activity [1]: 27.4%; Activity [2]: 23.6%; Activity [3]: 23.5%
